What was measured:
[1] = Cytotoxicity on NHDF cells in the anti-HCMV cytopathogenicity test; type: cell-based; conditions: human, NHDF cells (human prepuce fibroblasts), 6 days incubation, visual assessment of cytotoxic effects vs untreated cell control
Protocol: (§1) Anti-HCMV (Anti-Human Cytomegalovirus) Cytopathogenicity Tests The test compounds are employed as 50 millimolar (mM) solutions in dimethyl sulfoxide (DMSO). Ganciclovir, foscamet and cidofovir are used as reference compounds. After addition of in each case 2 μl of the 50, 5, 0.5 and 0.05 mM DMSO stock solutions to 98 μl portions of cell culture medium in row […] for duplicate determinations, 1:2 dilutions are carried out with 50 μl portions of medium up to row 11 of the 96-well plate. The wells in rows 1 and 12 each contain 50 μl of medium. 150 μl of a suspension of 1×10^4 cells (human prepuce fibroblasts [NHDF]) are then pipetted into each of the wells (row 1=cell control) and, in rows 2-12, a mixture of HCMV-infected and uninfected NHDF cells (M.O.I.=0.001-0.002), i.e. 1-2 infected cells per 1000 uninfected cells. Row 12 (without substance) serves as virus control. The final test concentrations are 250-0.0005 μM. The plates are incubated at 37° C./5% CO2 for 6 days, i.e. until all the cells are infected in the virus controls (100% cytopathogenic effect [CPE]). The wells are then fixed and stained by adding a mixture of formalin and Giemsa's dye (30 minutes), washed with double-distilled water and dried in a drying oven at 50° C. The plates are then assessed visually using an overhead microscope (plaque multiplier from Technomara). The following data can be acquired from the test plates: CC50 (NHDF)=substance concentration in […] at which no visible cytotoxic effects on the cells are evident by comparison with the untreated cell control;

HCMV = assay: Anti-HCMV cytopathogenicity test; type: cell-based, human cytomegalovirus; conditions: for EC50: inhibition of CPE by 50% vs untreated virus control, HCMV-infected NHDF cells, M.O.I. 0.001-0.002, 6 days; for SI HCMV (selectivity index = CC50 (NHDF)/EC50 (HCMV)): ratio CC50 (NHDF)/EC50 (HCMV)
Protocol: Anti-HCMV (Anti-Human Cytomegalovirus) Cytopathogenicity Tests The test compounds are employed as 50 millimolar (mM) solutions in dimethyl sulfoxide (DMSO). Ganciclovir, foscamet and cidofovir are used as reference compounds. After addition of in each case 2 μl of the 50, 5, 0.5 and 0.05 mM DMSO stock solutions to 98 μl portions of cell culture medium in row […] for duplicate determinations, 1:2 dilutions are carried out with 50 μl portions of medium up to row 11 of the 96-well plate. The wells in rows 1 and 12 each contain 50 μl of medium. 150 μl of a suspension of 1×10^4 cells (human prepuce fibroblasts [NHDF]) are then pipetted into each of the wells (row 1=cell control) and, in rows 2-12, a mixture of HCMV-infected and uninfected NHDF cells (M.O.I.=0.001-0.002), i.e. 1-2 infected cells per 1000 uninfected cells. Row 12 (without substance) serves as virus control. The final test concentrations are 250-0.0005 μM. The plates are incubated at 37° C./5% CO2 for 6 days, i.e. until all the cells are infected in the virus controls (100% cytopathogenic effect [CPE]). The wells are then fixed and stained by adding a mixture of formalin and Giemsa's dye (30 minutes), washed with double-distilled water and dried in a drying oven at 50° C. The plates are then assessed visually using an overhead microscope (plaque multiplier from Technomara). The following data can be acquired from the test plates: EC50 (HCMV)=substance concentration in μM which inhibits the CPE (cytopathic effect) by 50% compared with the untreated virus control; SI (selectivity index)=CC50 (NHDF)/EC50 (HCMV).

[2] = system: NHDF cells (human prepuce fibroblasts); assay: Cytotoxicity on NHDF cells in the anti-HCMV cytopathogenicity test; type: cell-based; conditions: 6 days incubation, visual assessment of cytotoxic effects vs untreated cell control
Protocol: as §1

[3] = Human betaherpesvirus 5, NHDF, 144 h

Compound | EC50 (HCMV; [3]) [µM] | EC50 (HCMV) [µM] | CC50 at 6 days [1] [µM] | SI HCMV (selectivity index = CC50 (NHDF)/EC50 (HCMV)) (HCMV) | CC50 [2] [µM]
O=C(O)CC1c2cccc(F)c2N=C(c2ccc(-c3ccc(F)cc3)cc2)N1c1cccc(C(F)(F)F)c1 (racemic) [Example 1] | 0.1 |  | 15 | 150 | 
O=C(O)CC1c2cccc(F)c2N=C(c2ccc(-c3ccc(F)cc3)cc2)N1c1cccc(C(F)(F)F)c1 (racemic) [Example 2, {8-Fluoro-2-(4′-fluoro-1,1′-biphenyl-4-yl)-3-[3-(trifluoromethyl)phenyl]-3,4-dihydro-4-quinazolinyl}acetic acid] |  | 0.07 |  | 171 | 12
Cc1cccc(-c2ccc(C3=Nc4c(F)cccc4C(CC(=O)O)N3c3cccc(C(F)(F)F)c3)cc2)c1 (racemic) [Example 3, {8-Fluoro-2-(3′-methyl-1,1′-biphenyl-4-yl)-3-[3-(trifluoromethyl)phenyl]-3,4-dihydro-4-quinazolinyl}acetic acid] |  | 0.13 | 15 | 115 | 
Cc1cccc(-c2ccc(C3=Nc4c(F)cccc4C(CC(=O)O)N3c3cccc(C(F)(F)F)c3)cc2)c1 (racemic) [Example 4, {8-Fluoro-2-(3′-methyl-1,1′-biphenyl-4-yl)-3-[3-(trifluoromethyl)phenyl]-3,4-dihydro-4-quinazolinyl}acetic acid] |  | 0.06 |  | 143 | 8.6
Cc1cc(-c2ccc(C3=Nc4c(F)cccc4C(CC(=O)O)N3c3cccc(C(F)(F)F)c3)cc2)ccc1F (stereo not drawn) [Example 5, {8-Fluoro-2-(4′-fluoro-3′-methyl-1,1′-biphenyl-4-yl)-3-[3-(trifluoromethyl)phenyl]-3,4-dihydro-4-quinazolinyl}acetic acid] | 0.74 |  | 12 | 16 | 
O=C(O)CC1c2cccc(F)c2N=C(c2ccc(-c3cccc(F)c3)cc2)N1c1cccc(C(F)(F)F)c1 (stereo not drawn) [Example 6, {8-Fluoro-2-(3′-fluoro-1,1′-biphenyl-4-yl)-3-[3-(trifluoromethyl)phenyl]-3,4-dihydro-4-quinazolinyl}acetic acid] | 0.35 |  | 12 | 34 | 

More lines, main results first:

EC50 (HCMV; [3]) [µM] | EC50 (HCMV) [µM] | Compound | CC50 at 6 days [1] [µM] | SI HCMV (selectivity index = CC50 (NHDF)/EC50 (HCMV)) (HCMV) | CC50 [2] [µM]
0.01 |  | COc1ccc(C(F)(F)F)cc1N1C(c2ccc(-c3ccc(F)cc3)cc2)=Nc2c(F)cccc2C1CC(=O)O (racemic) [Example 32, {2-[4-(4-Fluorophenyl)phenyl]-8-fluoro-3-[2-methoxy-5-(trifluoromethyl)phenyl]-3,4-dihydro-4-quinazolinyl}acetic acid] | 15 | 1500 | 
0.01 |  | COc1cccc(-c2ccc(C3=Nc4c(F)cccc4C(CC(=O)O)N3c3cc(C(F)(F)F)ccc3OC)cc2)c1 (racemic) [Example 36, {2-[4-(3-Methoxyphenyl)phenyl]-8-fluoro-3-[2-methoxy-5-(trifluoromethyl)phenyl]-3,4-dihydro-4-quinazolinyl}acetic acid] | 15 | 1500 | 
1.8 |  | O=C(O)CC1c2cccc(F)c2N=C(c2ccc(-c3ccc(F)cc3)cc2F)N1c1cccc(C(F)(F)F)c1 (stereo not drawn) [Example 7, {2-(3,4′-Difluoro-1,1′-biphenyl-4-yl)-8-fluoro-3-[3-(trifluoromethyl)phenyl]-3,4-dihydro-4-quinazolinyl}acetic acid] | 31 | 17 | 

Source: patent US7709491B2, “Substituted quinazolines as antiviral agents, especially against cytomegaloviruses” (Bayer Schering Pharma Aktiengesellschaft, priority 2002, dated 2010)
